Calls of active or inactive are those of the source.
How the values were obtained:
Variola virus [1] = assay: Antiviral activity against Variola virus BRZ66-39 infected in african green monkey BSC-40 cells at 0.05 to 0.5 uM by IHC staining-based plaque reduction assay; assay type: functional, organism-based
Variola virus [2] = assay: microbe, parasite or virus in culture; conditions: BRZ66-39, BSC-40
Ectromelia virus = assay: Antiviral activity against Ectromelia virus infected in african green monkey Vero cells assessed as reduction in virus-induced cytopathic effect; assay type: functional, cell-based
Monkeypox virus [3] = assay: Antiviral activity against Monkeypox virus 2003-USA-039 infected in african green monkey BSC-40 cells at 0.05 to 0.5 uM by IHC staining-based plaque reduction assay; assay type: functional, organism-based
Monkeypox virus [4] = assay: Antiviral activity against Monkeypox virus V78-I-3945 infected in african green monkey BSC-40 cells assessed as reduction in viral plaque formation at 0.015 uM uM by IHC staining-based plaque reduction assay; assay type: functional
Variola virus [5] = assay: Antiviral activity against Variola virus BRZ66-39 infected in african green monkey BSC-40 cells at 0.05 to 0.5 uM by IHC staining-based comet tail reduction assay; assay type: functional, organism-based
Monkeypox virus [6] = assay: Antiviral activity against Monkeypox virus V77-I-823 infected in african green monkey BSC-40 cells assessed as reduction in virus-induced cytopathic effect; assay type: functional, organism-based; conditions: V77-I-823, BSC-40
Variola virus [7] = assay: Antiviral activity against Variola virus NEP73-175 infected in african green monkey BSC-40 cells at 0.005 uM uM by IHC staining-based plaque reduction assay; assay type: functional, organism-based
Monkeypox virus [8] = assay: Antiviral activity against Monkeypox virus 2003-USA-039 infected in african green monkey BSC-40 cells at 0.005 uM uM by IHC staining-based plaque reduction assay; assay type: functional, organism-based
Variola virus [9] = assay: Antiviral activity against Variola virus SUD47-juba infected in african green monkey BSC-40 cells at 0.015 uM assessed as reduction in virus-induced cytopathic effect; assay type: functional, organism-based
Variola virus [10] = assay: Antiviral activity against Variola virus NEP73-175 infected in african green monkey BSC-40 cells at 0.05 to 5 uM assessed as reduction in virus-induced cytopathic effect; assay type: functional, organism-based
Monkeypox virus [11] = assay: Antiviral activity against Monkeypox virus V1979-I-005 infected in african green monkey BSC-40 cells at 0.005 uM by IHC staining-based comet tail reduction assay; assay type: functional, organism-based
Monkeypox virus [12] = assay: Antiviral activity against Monkeypox virus 2003-USA-039 infected in african green monkey BSC-40 cells assessed as reduction in virus-induced cytopathic effect at 0.05 to 5 uM; assay type: functional, organism-based
Monkeypox virus [13] = assay: Antiviral activity against Monkeypox virus V78-I-3945 infected in african green monkey BSC-40 cells assessed as reduction in virus-induced cytopathic effect at 0.015 uM; assay type: functional, organism-based
Monkeypox virus [14] = assay: Antiviral activity against Monkeypox virus V81-I-179 infected in african green monkey BSC-40 cells at 0.015 uM by IHC staining-based comet tail reduction assay; assay type: functional, organism-based
Variola virus [15] = assay: Antiviral activity against Variola virus SLN68-258 infected in african green monkey BSC-40 cells at 0.05 to 5 uM assessed as reduction in virus-induced cytopathic effect; assay type: functional, organism-based
Variola virus [16] = assay: Antiviral activity against Variola virus SLN68-258 infected in african green monkey BSC-40 cells at 0.005 uM by IHC staining-based comet tail reduction assay; assay type: functional, organism-based
Variola virus [17] = assay: Antiviral activity against Variola virus SOM77-ali infected in african green monkey BSC-40 cells at 0.05 to 0.5 uM by IHC staining-based comet tail reduction assay; assay type: functional, organism-based
Variola virus [18] = assay: Antiviral activity against Variola virus BRZ66-39 infected in african green monkey BSC-40 cells at 0.005 uM assessed as reduction in virus-induced cytopathic effect; assay type: functional, organism-based
Monkeypox virus [19] = assay: Antiviral activity against Monkeypox virus V1979-I-005 infected in african green monkey BSC-40 cells at 0.015 uM by IHC staining-based comet tail reduction assay; assay type: functional, organism-based
Variola virus [20] = assay: Antiviral activity against Variola virus SLN68-258 infected in african green monkey BSC-40 cells at 0.015 uM by IHC staining-based comet tail reduction assay; assay type: functional, organism-based
Monkeypox virus [21] = assay: Antiviral activity against Monkeypox virus 2003-USA-039 infected in african green monkey BSC-40 cells at 0.015 uM by IHC staining-based comet tail reduction assay; assay type: functional, organism-based
Variola virus [22] = assay: Antiviral activity against Variola virus SUD47-juba infected in african green monkey BSC-40 cells assessed as reduction in viral plaque formation at 0.015 uM uM by IHC staining-based plaque reduction assay; assay type: functional
Variola virus [23] = assay: Antiviral activity against Variola virus BSH74-sol infected in african green monkey BSC-40 cells at 0.05 to 0.5 uM by IHC staining-based plaque reduction assay; assay type: functional, organism-based
Variola virus [24] = assay: Antiviral activity against Variola virus BRZ66-39 infected in african green monkey BSC-40 cells at 0.015 uM by IHC staining-based comet tail reduction assay; assay type: functional, organism-based
Monkeypox virus [25] = assay: Antiviral activity against Monkeypox virus V77-I-823 infected in african green monkey BSC-40 cells at 0.005 uM by IHC staining-based comet tail reduction assay; assay type: functional, organism-based
Variola virus [26] = assay: Antiviral activity against Variola virus NEP73-175 infected in african green monkey BSC-40 cells at 0.015 uM assessed as reduction in virus-induced cytopathic effect; assay type: functional, organism-based
Monkeypox virus [27] = assay: Antiviral activity against Monkeypox virus V81-I-179 infected in african green monkey BSC-40 cells assessed as reduction in virus-induced cytopathic effect; assay type: functional, organism-based; conditions: V81-I-179, BSC-40
Variola virus [28] = assay: Antiviral activity against Variola virus NEP73-175 infected in african green monkey BSC-40 cells at 0.005 uM by IHC staining-based comet tail reduction assay; assay type: functional, organism-based
Monkeypox virus [29] = assay: Antiviral activity against Monkeypox virus V77-I-823 infected in african green monkey BSC-40 cells assessed as reduction in virus-induced cytopathic effect at 0.005 uM; assay type: functional, organism-based
Monkeypox virus [30] = assay: Antiviral activity against Monkeypox virus V81-I-179 infected in african green monkey BSC-40 cells at 0.005 uM by IHC staining-based comet tail reduction assay; assay type: functional, organism-based
Monkeypox virus [31] = assay: Antiviral activity against Monkeypox virus V1979-I-005 infected in african green monkey BSC-40 cells assessed as reduction in virus-induced cytopathic effect at 0.005 uM; assay type: functional, organism-based
Variola virus [32] = assay: Antiviral activity against Variola virus SLN68-258 infected in african green monkey BSC-40 cells at 0.005 uM uM by IHC staining-based plaque reduction assay; assay type: functional, organism-based
Monkeypox virus [33] = assay: Antiviral activity against Monkeypox virus V78-I-3945 infected in african green monkey BSC-40 cells at 0.05 to 0.5 uM by IHC staining-based plaque reduction assay; assay type: functional, organism-based
Monkeypox virus [34] = assay: Antiviral activity against Monkeypox virus V77-I-823 infected in african green monkey BSC-40 cells assessed as reduction in virus-induced cytopathic effect at 0.015 uM; assay type: functional, organism-based
Monkeypox virus [35] = assay: Antiviral activity against Monkeypox virus V81-I-179 infected in african green monkey BSC-40 cells assessed as reduction in viral plaque formation at 0.015 uM uM by IHC staining-based plaque reduction assay; assay type: functional
Variola virus [36] = assay: Antiviral activity against Variola virus SLN68-258 infected in african green monkey BSC-40 cells at 0.015 uM assessed as reduction in virus-induced cytopathic effect; assay type: functional, organism-based

O=C(NN1C(=O)[C@@H]2[C@@H]3C=C[C@@H]([C@H]4C[C@@H]34)[C@@H]2C1=O)c1ccc(C(F)(F)F)cc1 [TECOVIRIMAT]
50%: inhibition (INH) (Monkeypox virus [4]) | inhibition (INH) (Variola virus [22]) | inhibition (INH) (Monkeypox virus [35])
32 nM: EC50 (Monkeypox virus [27])
30 nM: EC50 (Monkeypox virus [6])
active: Activity (Variola virus [1]) | Activity (Ectromelia virus) | Activity (Monkeypox virus [3]) | Activity (Variola virus [5]) | Activity (Variola virus [9]) | Activity (Variola virus [10]) | Activity (Monkeypox virus [12]) | Activity (Monkeypox virus [13]) | Activity (Monkeypox virus [14]) | Activity (Variola virus [15]) | Activity (Variola virus [17]) | Activity (Monkeypox virus [19]) | Activity (Variola virus [20]) | Activity (Monkeypox virus [21]) | Activity (Variola virus [23]) | Activity (Variola virus [24]) | Activity (Variola virus [26]) | Activity (Monkeypox virus [33]) | Activity (Monkeypox virus [34]) | Activity (Variola virus [36])
67 nM: EC50 (Variola virus [2])
inactive: Activity (Variola virus [7]) | Activity (Monkeypox virus [8]) | Activity (Monkeypox virus [11]) | Activity (Variola virus [16]) | Activity (Variola virus [18]) | Activity (Monkeypox virus [25]) | Activity (Variola virus [28]) | Activity (Monkeypox virus [29]) | Activity (Monkeypox virus [30]) | Activity (Monkeypox virus [31]) | Activity (Variola virus [32])
